Data as given in patent US5231100A, “Antineoplastic modified imidazoacridines” (British Technology Group Limited, priority 1991, dated 1993).
Read-outs that look alike come from different tables or passages of the source.

How the values were obtained:
[1] = system: mouse L1210 leukemia cells; test: In vitro cytotoxicity, 48 h growth inhibition (cell protein content); assay type: cell-based
Method: The mouse L1210 leukemia cells (RPM1, USA) are grown in RPM1 1640 medium supplemented with 5% fetal calf serum and penicillin (1,000,000 units litre) plus streptomycin (100 mg/litre) in controlled air-5% CO2 humidified atmosphere at 37° C. L1210 mouse leukemia cells are seeded at a density of 5.10^4 cells/ml. The tested compounds after being dissolved in 50% ethanol are added, at four different concentrations, to the cell suspensions. […] 1974, 24, 1971.

[2] = system: P388 lymphotic leukemia; test: In vivo antileukemic evaluation, P388 leukemia in BDF1 mice
Method: BDF1 mice are injected ip with 10^6 P388 lymphotic leukemia cells on day O and treated ip on days 1-5 in accordance with the protocols described by the National Cancer Institute: Geran, R. I.; Greenberg, R. H.; MacDonald, M. M.; Schumacher, A. M.; Abbot, B. J. Cancer Chemother, Re., Part 3, 1972,3,1. The mean survival time (MST) for each treatment group (eight mice) is calculated and the percent of T/C was determined by using the following formula: % T/C=(MST treated)/(MST control) 100.

[3] = L1210 cells, 48 h, 50% growth inhibition, read-out: in vitro IC50
[4] = L1210 cells, 48 h, 50% growth inhibition, read-out: in vitro IC50 (μg/ml)
[5] = P388 ip, treated ip days 1-5, at opt dose, first or only value
[6] = P388 ip, treated ip days 1-5, at opt dose, repeated independent multidose assay (footnote c)

Row | SMILES | IC50 [1, 3] [µM] | IC50 [1, 4] [µg/mL] | % T/C (mean survival time treated/control) [2, 5] [%] | % T/C (mean survival time treated/control), second value [2, 6] [%] | % T/C (mean survival time treated/control) ([2]; ip) [%] | % T/C (mean survival time treated/control), second value ([2]; ip) [%] | IC50 ([1]; L1210, 48 h, read-out: in vitro IC50 (μM)) [µM] | IC50 ([1]; L1210, 48 h, read-out: in vitro IC50 (μg/ml)) [µg/mL]
1 | COc1ccc2c(c1)c(=O)c1c(NCCCN(C)C)ccc3nc(C)n2c31 [Example 6] | 3.2 | 1.4 | 136 |  |  |  |  | 
2 | CCN(CC)CCCNc1ccc2nc(C)n3c4ccc(OC)cc4c(=O)c1c23 [Example 8] | 1.4 | 0.7 | 108 |  |  |  |  | 
3 | Cc1nc2ccc(NCCN(C)C)c3c(=O)c4cc(O)ccc4n1c23 [Example 10] | 0.135 | 0.06 | 200 | 250 |  |  |  | 
4 | CCN(CC)CCCNc1ccc2nc(C)n3c4ccc(O)cc4c(=O)c1c23 [Example 16] | 0.89 | 0.4 | 150 | 155 |  |  |  | 
5 | CN(C)CCCNc1ccc2ncn3c4ccc(O)cc4c(=O)c1c23 [Example 13] | 0.034 | 0.014 | 183 |  |  |  |  | 
6 | COc1ccc2c(c1)c(=O)c1c(NCCN(C)C)ccc3nc(C)n2c31 [Example 3] | 0.77 | 0.34 | 127 |  |  |  |  | 
7 | CCN(CC)CCNc1ccc2nc(C)n3c4ccc(OC)cc4c(=O)c1c23 [Example 4] | 1.55 | 0.7 | 136 | 120 |  |  |  | 
8 | CCN(CC)CCNc1ccc2ncn3c4ccc(O)cc4c(=O)c1c23 [Example 11] | 0.031 | 0.013 |  |  | 211 | 175 |  | 
9 | CN(C)CCNc1ccc2ncn3c4ccc(O)cc4c(=O)c1c23 [Example 9] | 0.048 | 0.02 | 210 | 210 |  |  |  | 
10 | CCN(CC)CCNc1ccc2nc(C)n3c4ccc(O)cc4c(=O)c1c23 [Example 12] | 0.25 | 0.11 | 280 | 290 |  |  |  | 
11 | COc1ccc2c(c1)c(=O)c1c(NCCCN(C)C)ccc3ncn2c31 [Example 5] | 8.25 | 3.5 | 164 |  |  |  |  | 
12 | Cc1nc2ccc(NCCCN(C)C)c3c(=O)c4cc(O)ccc4n1c23 [Example 14] | 0.23 | 0.1 | 255 |  |  |  |  | 
13 | CCN(CC)CCCNc1ccc2ncn3c4ccc(O)cc4c(=O)c1c23 [Example 15] | 0.18 | 0.08 | 309 | 230 |  |  |  | 
14 | COc1ccc2c(c1)c(=O)c1c(NCCN(C)C)ccc3ncn2c31 [Example 2] |  |  | 177 | 136 |  |  | 1.6 | 0.65
15 | CCN(CC)CCCNc1ccc2ncn3c4ccc(OC)cc4c(=O)c1c23 [Example 7] | 2.5 | 1.1 | 142 |  |  |  |  | 
16 | CCN(CC)CCNc1ccc2ncn3c4ccc(OC)cc4c(=O)c1c23.Cl.Cl [Example 1, 5-[[2-(Diethylamino)ethyl]amino]-8-methoxyimidazo[4,5,1-de] acridin-6-one Dihydrochloride] | 1.8 | 0.78 | 183 | 209 |  |  |  | 
